We go through two substances from publication PMC7707423 (Acta biomaterialia, 2017).

The target in experiment [1] is IGFBP-5 (Homo sapiens) (UniProt P24593). Conditions: cited from earlier work.
In experiment [2] the target is mini-IGFBP-5 binding pocket (Homo sapiens) (UniProt P24593). Particulars: cited from earlier work.
Experiment [3] has as its system chondrocytes. In words: Hydroxyproline. It counts as cell-based, Bos taurus. Particulars: 10, 33 and 100 μM binding sites; p<0.001 by 2-way ANOVA.
Experiment [4] relates to type II collagen. In words: Immunohistochemistry of constructs for type II collagen. It counts as cell-based, Bos taurus. Particulars: particularly at higher concentrations of KPLHALL.
The test system of experiment [5] is IGF-I. In words: Immunohistochemistry / retention of IGF-I in chondrocyte constructs. The experiment is classed as cell-based, Bos taurus. Particulars: 100 μM of binding sites.
Experiment [6] relates to chondrocytes. As to the kind of experiment: GAG synthesis by encapsulated chondrocytes. The experiment is classed as cell-based, Bos taurus. Conditions: control (empty vector) chondrocytes; 0-100 μM KPLHALL, 30 days.
Experiment [7] deals with IGF-I (Homo sapiens, UniProt P05019). As to the kind of experiment: Surface plasmon resonance, IGF-I binding to alginate materials. Conditions: SPR.
Chain of IGF-I (Homo sapiens, UniProt P05019) (P05019 49-118 limits assumed): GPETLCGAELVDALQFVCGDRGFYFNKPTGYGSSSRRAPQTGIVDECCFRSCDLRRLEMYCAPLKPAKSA

Chain of IGF-I (from UniProt P05019) (P05019 49-118): as the sequence (P05019 49-118 limits assumed) above
Chain of mini-IGFBP-5 binding pocket (Homo sapiens) (P24593 60-112): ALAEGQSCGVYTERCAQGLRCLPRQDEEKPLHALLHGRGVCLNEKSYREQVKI
Chain of IGFBP-5 (Homo sapiens) (P24593 21-272): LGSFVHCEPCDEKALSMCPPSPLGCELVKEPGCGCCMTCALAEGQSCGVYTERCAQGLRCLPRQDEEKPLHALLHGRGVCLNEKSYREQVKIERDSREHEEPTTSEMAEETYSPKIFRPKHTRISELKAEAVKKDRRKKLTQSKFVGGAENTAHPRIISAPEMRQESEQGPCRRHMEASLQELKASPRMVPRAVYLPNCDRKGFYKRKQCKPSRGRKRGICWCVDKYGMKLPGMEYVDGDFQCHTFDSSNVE

IGF-I (from UniProt P05019): the Kd in experiment [1] is 3.7 nM; in experiment [2], 37 nM.

In the case of GGG-KPLALL (KPLHALL) [KPLHALL alginate], in experiment [3], the “effect on HYPRO of binding-site concentration” value is “greater in concentrations of 10, 33 and 100 μM binding sites”. In addition, the “type II collagen immunostaining at day 30” value in experiment [4] was “robust staining for type II collagen”. Further, the “IGF-I immunostaining at day 30” value in experiment [5] is reported as “highest immunolocalization of IGF-I”. Moreover, the “GAG synthesis enhancement (maximum of steady state, normalized to alginate 0 μM)” value in experiment [6] came to 1.6 fold. Besides, the “KD shift of KPLHALL alginate compared to alginate” value in experiment [7] (KD 50 nM vs 513 nM) is listed as 10 times. For the same substance, the “enhancement of binding affinity for IGF-I by KPLHALL modification” value in experiment [7] (vs unmodified alginate) is recorded as “more than 10 fold”.
